#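 Cells were grown in 96-well plates and exposed to each compound for 48 hours at five concentrations; endpoints were interpolated linearly between bracketing concentrations, or set to the highest concentration if not reached. The concentration for 50% growth inhibition is given as GI50. At the TGI there is no net growth.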
# Legend:
# Test in all cases: NCI tumour cell line growth inhibition, 48 h
# HCC-2998 colon = test system: HCC-2998 colon
# DU-145 prostate = test system: DU-145 prostate
# MDA-MB-435 = test system: MDA-MB-435
# CAKI-1 renal = test system: CAKI-1 renal
# HL-60(TB) leukemia = test system: HL-60(TB) leukemia
# EKVX NSCLC = test system: EKVX NSCLC
# NCI-H522 lung = test system: NCI-H522 lung
# SR leukemia = test system: SR leukemia
# T-47D breast = test system: T-47D breast
# NCI-H460 lung = test system: NCI-H460 lung
# SK-OV-3 ovarian = test system: SK-OV-3 ovarian
# A498 renal = test system: A498 renal
# IGROV1 ovarian = test system: IGROV1 ovarian
# COLO 205 colon = test system: COLO 205 colon
# A549 NSCLC = test system: A549 NSCLC
# U251 CNS = test system: U251 CNS
# MDA-MB-231 breast = test system: MDA-MB-231 breast
# UACC-257 melanoma = test system: UACC-257 melanoma
# CCRF-CEM leukemia = test system: CCRF-CEM leukemia
# OVCAR-3 ovarian = test system: OVCAR-3 ovarian
# SF-268 CNS = test system: SF-268 CNS
# OVCAR-5 ovarian = test system: OVCAR-5 ovarian
# M14 melanoma = test system: M14 melanoma
# TK-10 renal = test system: TK-10 renal
# SK-MEL-2 melanoma = test system: SK-MEL-2 melanoma
# MCF7 breast = test system: MCF7 breast
# NCI-H23 lung = test system: NCI-H23 lung
# RPMI-8226 leukemia = test system: RPMI-8226 leukemia
# 786-0 renal = test system: 786-0 renal
# ACHN renal = test system: ACHN renal
# RXF 393 renal = test system: RXF 393 renal
# SF-295 CNS = test system: SF-295 CNS
# SK-MEL-5 melanoma = test system: SK-MEL-5 melanoma
# SW-620 colon = test system: SW-620 colon
# HOP-62 NSCLC = test system: HOP-62 NSCLC
# K-562 leukemia = test system: K-562 leukemia
# HCT-15 colon = test system: HCT-15 colon
# HOP-92 NSCLC = test system: HOP-92 NSCLC
# OVCAR-8 ovarian = test system: OVCAR-8 ovarian
# SNB-75 CNS = test system: SNB-75 CNS
# OVCAR-4 ovarian = test system: OVCAR-4 ovarian
# MALME-3M melanoma = test system: MALME-3M melanoma
# NCI/ADR-RES ovarian = test system: NCI/ADR-RES ovarian
# MOLT-4 leukemia = test system: MOLT-4 leukemia
# SK-MEL-28 melanoma = test system: SK-MEL-28 melanoma
# SNB-19 CNS = test system: SNB-19 CNS
# PC-3 prostate = test system: PC-3 prostate
# NCI-H226 lung = test system: NCI-H226 lung
# KM12 colon = test system: KM12 colon
# BT-549 breast = test system: BT-549 breast
# SN12C renal = test system: SN12C renal
# UO-31 renal = test system: UO-31 renal
# UACC-62 melanoma = test system: UACC-62 melanoma
# LOX IMVI melanoma = test system: LOX IMVI melanoma
# HCT-116 colon = test system: HCT-116 colon
# HS 578T breast = test system: HS 578T breast
smiles,measurement,setting,value
CCOC(=O)C#Cc1c(C(=O)OCC)nnn1Cc1ccc(C(F)(F)F)cc1,GI50,HCC-2998 colon,18.1 µM
same,TGI,HCC-2998 colon,32.7 µM
same,GI50,DU-145 prostate,3.9 µM
same,TGI,DU-145 prostate,15.1 µM
same,GI50,MDA-MB-435,3.72 µM
same,TGI,MDA-MB-435,14.5 µM
same,GI50,CAKI-1 renal,2.09 µM
same,TGI,CAKI-1 renal,4.58 µM
same,GI50,HL-60(TB) leukemia,1.3 µM
same,TGI,HL-60(TB) leukemia,3.85 µM
same,GI50,EKVX NSCLC,16.6 µM
same,TGI,EKVX NSCLC,31.2 µM
same,GI50,NCI-H522 lung,2.4 µM
same,TGI,NCI-H522 lung,4.47 µM
same,GI50,SR leukemia,1.06 µM
same,TGI,SR leukemia,4.48 µM
same,GI50,T-47D breast,2.08 µM
same,TGI,T-47D breast,5.66 µM
same,GI50,NCI-H460 lung,11.5 µM
same,TGI,NCI-H460 lung,27.1 µM
same,GI50,SK-OV-3 ovarian,19.4 µM
same,TGI,SK-OV-3 ovarian,38.6 µM
same,GI50,A498 renal,16.9 µM
same,TGI,A498 renal,30.6 µM
same,GI50,IGROV1 ovarian,14.2 µM
same,TGI,IGROV1 ovarian,30.8 µM
same,GI50,COLO 205 colon,2.32 µM
same,TGI,COLO 205 colon,5.29 µM
same,GI50,A549 NSCLC,20.6 µM
same,TGI,A549 NSCLC,39.2 µM
same,GI50,U251 CNS,10.9 µM
same,TGI,U251 CNS,22.8 µM
same,GI50,MDA-MB-231 breast,4.05 µM
same,TGI,MDA-MB-231 breast,14 µM
same,GI50,UACC-257 melanoma,3.69 µM
same,TGI,UACC-257 melanoma,11 µM
same,GI50,CCRF-CEM leukemia,1.07 µM
same,TGI,CCRF-CEM leukemia,4.92 µM
same,GI50,OVCAR-3 ovarian,1.73 µM
same,TGI,OVCAR-3 ovarian,3.32 µM
same,GI50,SF-268 CNS,8.12 µM
same,TGI,SF-268 CNS,25.7 µM
same,GI50,OVCAR-5 ovarian,9.75 µM
same,TGI,OVCAR-5 ovarian,22 µM
same,GI50,M14 melanoma,2.46 µM
same,TGI,M14 melanoma,5.82 µM
same,GI50,TK-10 renal,2.08 µM
same,TGI,TK-10 renal,4.55 µM
same,GI50,SK-MEL-2 melanoma,15.1 µM
same,TGI,SK-MEL-2 melanoma,28.7 µM
same,GI50,MCF7 breast,2.52 µM
same,TGI,MCF7 breast,10.1 µM
same,GI50,NCI-H23 lung,11.5 µM
same,TGI,NCI-H23 lung,27.6 µM
same,GI50,RPMI-8226 leukemia,2.53 µM
same,TGI,RPMI-8226 leukemia,7.21 µM
same,GI50,786-0 renal,2.58 µM
same,TGI,786-0 renal,6.29 µM
same,GI50,ACHN renal,1.92 µM
same,TGI,ACHN renal,3.56 µM
same,GI50,RXF 393 renal,1.68 µM
same,TGI,RXF 393 renal,3.24 µM
same,GI50,SF-295 CNS,17.5 µM
same,TGI,SF-295 CNS,32.9 µM
same,GI50,SK-MEL-5 melanoma,9.92 µM
same,TGI,SK-MEL-5 melanoma,21.5 µM
same,GI50,SW-620 colon,2.08 µM
same,TGI,SW-620 colon,4.36 µM
same,GI50,HOP-62 NSCLC,17 µM
same,TGI,HOP-62 NSCLC,32 µM
same,GI50,K-562 leukemia,1.77 µM
same,TGI,K-562 leukemia,8.3 µM
same,GI50,HCT-15 colon,1.95 µM
same,TGI,HCT-15 colon,4.46 µM
same,GI50,HOP-92 NSCLC,2.53 µM
same,TGI,HOP-92 NSCLC,5.7 µM
same,GI50,OVCAR-8 ovarian,4.37 µM
same,TGI,OVCAR-8 ovarian,15 µM
same,GI50,SNB-75 CNS,9.31 µM
same,TGI,SNB-75 CNS,21.4 µM
same,GI50,OVCAR-4 ovarian,3.22 µM
same,TGI,OVCAR-4 ovarian,11.7 µM
same,GI50,MALME-3M melanoma,2.08 µM
same,TGI,MALME-3M melanoma,4.9 µM
same,GI50,NCI/ADR-RES ovarian,7.49 µM
same,TGI,NCI/ADR-RES ovarian,40.7 µM
same,GI50,MOLT-4 leukemia,1.73 µM
same,TGI,MOLT-4 leukemia,6.85 µM
same,GI50,SK-MEL-28 melanoma,2.47 µM
same,TGI,SK-MEL-28 melanoma,5.91 µM
same,GI50,SNB-19 CNS,19.4 µM
same,TGI,SNB-19 CNS,44.8 µM
same,GI50,PC-3 prostate,9.38 µM
same,TGI,PC-3 prostate,22 µM
same,GI50,NCI-H226 lung,1.72 µM
same,TGI,NCI-H226 lung,3.63 µM
same,GI50,KM12 colon,11.8 µM
same,TGI,KM12 colon,25.5 µM
same,GI50,BT-549 breast,2.93 µM
same,TGI,BT-549 breast,8.65 µM
same,GI50,SN12C renal,2.42 µM
same,TGI,SN12C renal,6.08 µM
same,GI50,UO-31 renal,1.8 µM
same,TGI,UO-31 renal,3.47 µM
same,GI50,UACC-62 melanoma,1.93 µM
same,TGI,UACC-62 melanoma,4.36 µM
same,GI50,LOX IMVI melanoma,0.692 µM
same,TGI,LOX IMVI melanoma,2.09 µM
same,GI50,HCT-116 colon,1.8 µM
same,TGI,HCT-116 colon,3.5 µM
same,GI50,HS 578T breast,22.5 µM
same,TGI,HS 578T breast,59.5 µM

# Source: PubChem BioAssay (NCI)
